Reference: US10501518B2 (priority 2013, dated 2019)
Where two headings read alike, the source gives them in different places. Starred links: 1 amine or outer side, 2 acyl side, 3 side chain; linkers in the order of their positions; H or OH if unused. Non-standard residues stand in square brackets, D forms with d. Residues, ends and D or L forms follow the SMILES beside them. *: point of attachment. NH(1S,2S-2-CONH2-cPent) = NC(=O)[C@H]1CCC[C@@H]1N*; X12 = O=C([C@H]1CCC[C@@H]1N[*:1])[*:2]; X13 = O=C([C@H]1CNC[C@@H]1N[*:1])[*:2]; ACPC(1S,2S) = N[C@H]1CCC[C@@H]1C(=O)*; Aib = CC(C)(N)C(=O)O

Tests used:
WT rat PTHR-1 = target: T1, WT rat PTHR-1 (Rattus norvegicus, UniProt P25961); experiment: cAMP GloSensor dose-response in GR-35 cells expressing rat PTHR-1; format: cell-based; conditions: Table 7; GR-35 cells, 12-16 minutes after ligand addition; mean ± SEM
T1 construct: expressed in transfected cells
T1 sequence (P25961 27-591): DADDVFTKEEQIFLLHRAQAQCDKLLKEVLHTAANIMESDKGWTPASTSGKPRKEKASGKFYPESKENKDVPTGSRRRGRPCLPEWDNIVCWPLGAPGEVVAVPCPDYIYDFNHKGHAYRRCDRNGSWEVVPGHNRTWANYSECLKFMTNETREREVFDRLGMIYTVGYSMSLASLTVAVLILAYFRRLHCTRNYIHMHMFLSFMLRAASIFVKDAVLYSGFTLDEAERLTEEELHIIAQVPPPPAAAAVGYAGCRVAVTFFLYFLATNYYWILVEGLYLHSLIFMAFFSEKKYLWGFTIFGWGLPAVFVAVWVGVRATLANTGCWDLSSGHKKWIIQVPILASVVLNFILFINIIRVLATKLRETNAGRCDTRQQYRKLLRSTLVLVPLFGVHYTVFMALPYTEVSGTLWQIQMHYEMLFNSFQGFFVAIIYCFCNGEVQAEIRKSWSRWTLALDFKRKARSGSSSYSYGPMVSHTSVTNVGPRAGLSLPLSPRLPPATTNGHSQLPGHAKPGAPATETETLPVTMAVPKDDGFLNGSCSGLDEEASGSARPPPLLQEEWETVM
Experimental: FIGS. 9A, 9B, and 9C constitute a series of graphs depicting cAMP responses in GR-35 cells expressing rat PTHR-1-WT. […] Data are means (±SEM) of n>4 experiments, each performed in duplicate.
(§1) For cAMP dose-response assays, monolayers of confluent HEK 293 cells were pre-incubated with buffer containing d-luciferin (0.5 mM) in 96 well plates at room temperature until a stable baseline level of luminescence was established (30 min). Varying concentrations of agonist were then added, and the time course of luminescence response was recorded using a Perkin Elmer plate reader following α/β-peptide addition.

WT human PTHR-1 = target: T2, WT human PTHR-1 (Homo sapiens, UniProt Q03431); experiment: cAMP GloSensor dose-response in GP-2.3 cells expressing human PTHR-1; format: cell-based; conditions: for cAMP (hPTHR-1) Max: Table 1, luminescence counts per second relative to PTH(1-34); for cAMP (hPTHR-1) Max / Max: 12-16 minutes after ligand addition; for Max: Table 6, GP-2.3 cells, mean ± SEM
T2 construct: bioactivity of the resulting compound in full-length hPTHR-1 and a truncated version; expressed in transfected cells
T2 sequence (Q03431 27-593): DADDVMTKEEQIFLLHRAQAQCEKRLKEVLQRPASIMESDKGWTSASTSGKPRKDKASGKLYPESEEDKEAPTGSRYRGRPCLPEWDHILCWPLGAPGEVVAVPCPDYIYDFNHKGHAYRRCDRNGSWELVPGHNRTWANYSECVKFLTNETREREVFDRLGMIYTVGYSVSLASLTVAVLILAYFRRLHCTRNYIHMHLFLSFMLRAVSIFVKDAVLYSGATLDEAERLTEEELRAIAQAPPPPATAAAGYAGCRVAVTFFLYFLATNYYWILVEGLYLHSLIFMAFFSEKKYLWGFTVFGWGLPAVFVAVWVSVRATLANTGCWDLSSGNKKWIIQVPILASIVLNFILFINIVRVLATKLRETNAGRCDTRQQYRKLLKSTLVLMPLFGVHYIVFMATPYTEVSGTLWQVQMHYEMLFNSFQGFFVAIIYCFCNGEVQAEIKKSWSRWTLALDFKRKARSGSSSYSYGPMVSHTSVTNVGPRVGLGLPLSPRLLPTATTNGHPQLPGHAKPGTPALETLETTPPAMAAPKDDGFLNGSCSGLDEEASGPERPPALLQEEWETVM
Experimental: FIGS. 8A, 8B, and 8C constitute a series of graphs depicting cAMP responses in GP-2.3 cells expressing wild-type human parathyroid hormone receptor 1 (PTHR-1-WT). […] Data are means (±SEM) of n>4 experiments, each performed in duplicate.
as §1

EC50 (WT human PTHR-1; read-out: cAMP EC50) [nM] | SMILES | Max (WT rat PTHR-1) | cAMP (hPTHR-1) Max (WT human PTHR-1) | Max (WT human PTHR-1) | other results
 | CC[C@H](C)[C@H](NC(=O)[C@H](CCC(=O)O)NC(=O)[C@H](CO)NC(=O)[C@@H](NC(=O)[C@@H](N)CO)C(C)C)C(=O)N[C@@H](CCC(N)=O)C(=O)N[C@@H](CC(C)C)C(=O)N[C@@H](CCSC)C(=O)N[C@@H](Cc1c[nH]cn1)C(=O)N[C@@H](CC(N)=O)C(=O)N[C@@H](CC(C)C)C(=O)NCC(=O)N[C@@H](CCCCN)C(=O)N[C@@H](Cc1c[nH]cn1)C(=O)N[C@@H](CC(C)C)C(=O)N[C@@H](CC(N)=O)C(=O)N[C@@H](CO)C(=O)N[C@@H](CCSC)C(=O)N[C@@H](CCC(=O)O)C(=O)N[C@@H](CCCNC(=N)N)C(=O)N[C@H](C(=O)N[C@@H](CCC(=O)O)C(=O)N[C@H](CC(=O)N[C@@H](CC(C)C)C(=O)N[C@@H](CCCNC(=N)N)C(=O)N[C@@H](CCCCN)C(=O)N[C@@H](CCCCN)CC(=O)N[C@@H](CC(C)C)C(=O)N[C@@H](CCC(N)=O)C(=O)N[C@@H](CC(=O)O)C(=O)N[C@H](CC(=O)N[C@@H](Cc1c[nH]cn1)C(=O)N[C@@H](CC(N)=O)C(=O)N[C@@H](Cc1ccccc1)C(N)=O)C(C)C)Cc1c[nH]c2ccccc12)C(C)C [A3] | 74 ± 101 luminescence counts per second × 10−3 | 1.07 | 232 ± 15 luminescence counts per second × 10^−3 | agonist activity at hPTHR-1 (cAMP response), in words (WT human PTHR-1; maximum cAMP response compared with PTH(1-34)): full agonists of hPTHR-1
0.26 | CC[C@H](C)[C@H](NC(=O)[C@H](CO)NC(=O)[C@H](CCCCN)NC(=O)CNC(=O)[C@H](CCCCN)NC(=O)[C@H](CC(=O)O)NC(=O)[C@H](Cc1c[nH]cn1)NC(=O)[C@H](CC(C)C)NC(=O)[C@H]1CCC[C@@H]1NC(=O)[C@H](CCC(N)=O)NC(=O)[C@H]1CCC[C@@H]1NC(=O)[C@H](CCC(=O)O)NC(=O)[C@H](CO)NC(=O)[C@@H](NC(=O)[C@H]1CCC[C@@H]1N)C(C)C)C(=O)N[C@@H](CCC(N)=O)C(=O)N[C@@H](CC(=O)O)C(=O)N[C@@H](CC(C)C)C(=O)N[C@@H](CCCNC(=N)N)C(=O)N[C@@H](CCCNC(=N)N)C(=O)N[C@@H](CCCNC(=N)N)C(=O)N[C@@H](CCC(=O)O)C(=O)N[C@@H](CC(C)C)C(=O)N[C@@H](CC(C)C)C(=O)N[C@@H](CCC(=O)O)C(=O)N[C@@H](CCCCN)C(=O)N[C@@H](CC(C)C)C(=O)N[C@@H](CC(C)C)C(=O)NC(C)(C)C(=O)N[C@@H](CCCCN)C(=O)N[C@@H](CC(C)C)C(=O)N[C@@H](Cc1c[nH]cn1)C(=O)N[C@H](C(=O)N[C@@H](C)C(N)=O)[C@@H](C)O [BA058 ACPC(1,5,7), XVSEXQXLHDKGKSIQDLRRRELLEKLLUKLHTA-NH2] ({ACPC(1S,2S)}-VSE[X12]Q[X12]LHDKGKSIQDLRRRELLEKLL[Aib]KLHTA-NH2; N-terminus assumed) |  |  |  | 
0.65 | CC[C@H](C)[C@H](NC(=O)[C@H]1CCC[C@@H]1NC(=O)[C@H](CCCCN)NC(=O)CNC(=O)[C@H](CCCCN)NC(=O)[C@H](CC(=O)O)NC(=O)[C@H](Cc1cnc[nH]1)NC(=O)[C@H](CC(C)C)NC(=O)[C@H]1CCC[C@@H]1NC(=O)[C@H](CCC(N)=O)NC(=O)[C@H]1CCC[C@@H]1NC(=O)[C@H](CCC(=O)O)NC(=O)[C@H](CO)NC(=O)[C@@H](NC(=O)[C@H]1CCC[C@@H]1N)C(C)C)C(=O)N[C@@H](CCC(N)=O)C(=O)N[C@@H](CC(=O)O)C(=O)N[C@H]1CCC[C@@H]1C(=O)N[C@@H](CCCNC(=N)N)C(=O)N[C@@H](CCCNC(=N)N)C(=O)N[C@@H](CCCNC(=N)N)C(=O)N[C@H]1CNC[C@@H]1C(=O)N[C@@H](CC(C)C)C(=O)N[C@@H](CC(C)C)C(=O)N[C@@H](CCC(=O)O)C(=O)N[C@H]1CNC[C@@H]1C(=O)N[C@@H](CC(C)C)C(=O)N[C@@H](CC(C)C)C(=O)NC(C)(C)C(=O)N[C@H]1CCC[C@@H]1C(=O)N[C@@H](CC(C)C)C(=O)N[C@@H](Cc1cnc[nH]1)C(=O)N[C@H](C(=O)N[C@H]1CCC[C@@H]1C(N)=O)[C@@H](C)O [CycD6 BA058 ACPC(1,5,7), XVSEXQXLHDKGKXIQDXRRRZLLEZLLUXLHTX-NH2] ({ACPC(1S,2S)}-VSE[X12]Q[X12]LHDKGK[X12]IQD[X12]RRR[X13]LLE[X13]LL[Aib][X12]LHT-{NH(1S,2S-2-CONH2-cPent)}) |  |  |  | 
 | CC[C@H](C)[C@H](NC(=O)[C@H]1CCC[C@@H]1NC(=O)[C@H](CO)NC(=O)[C@@H](NC(=O)[C@@H](N)CO)C(C)C)C(=O)N[C@@H](CCC(N)=O)C(=O)N[C@@H](CC(C)C)C(=O)N[C@@H](CCSC)C(=O)N[C@@H](Cc1c[nH]cn1)C(=O)N[C@@H](CC(N)=O)C(=O)N[C@@H](CC(C)C)C(=O)NCC(=O)N[C@@H](CCCCN)C(=O)N[C@@H](Cc1c[nH]cn1)C(=O)N[C@@H](CC(C)C)C(=O)N[C@@H](CC(N)=O)C(=O)N[C@@H](CO)C(=O)N[C@@H](CCSC)C(=O)N[C@@H](CCC(=O)O)C(=O)N[C@@H](CCCNC(=N)N)C(=O)N[C@H](C(=O)N[C@@H](CCC(=O)O)C(=O)N[C@@H](Cc1c[nH]c2ccccc12)C(=O)N[C@@H](CC(C)C)C(=O)N[C@@H](CCCNC(=N)N)C(=O)N[C@@H](CCCCN)C(=O)N[C@@H](CCCCN)C(=O)N[C@@H](CC(C)C)C(=O)N[C@@H](CCC(N)=O)C(=O)N[C@@H](CC(=O)O)C(=O)N[C@H](C(=O)N[C@@H](Cc1c[nH]cn1)C(=O)N[C@@H](CC(N)=O)C(=O)N[C@@H](Cc1ccccc1)C(N)=O)C(C)C)C(C)C [ACPC(4)] (H-SVS[X12]IQLMHNLGKHLNSMERVEWLRKKLQDVHNF-NH2; N-terminus assumed) |  |  |  | hPTHR1 EC50, nM (Means ± SEM) (WT human PTHR-1; Table 8, cAMP-inducing potency, N-terminal modifications): No activity
 | CC[C@H](C)[C@H](NC(=O)[C@H](CCC(=O)O)NC(=O)[C@H](CO)NC(=O)[C@@H](NC(=O)[C@@H](N)CO)C(C)C)C(=O)N[C@@H](CCC(N)=O)C(=O)N[C@@H](CC(C)C)C(=O)N[C@@H](CCSC)C(=O)N[C@@H](Cc1c[nH]cn1)C(=O)N[C@@H](CC(N)=O)C(=O)N[C@@H](CC(C)C)C(=O)NCC(=O)N[C@@H](CCCCN)C(=O)N[C@@H](Cc1c[nH]cn1)C(=O)N[C@H](CC(=O)N[C@@H](CC(N)=O)C(=O)N[C@@H](CO)C(=O)N[C@@H](CCSC)C(=O)N[C@@H](CCC(=O)O)CC(=O)N[C@@H](CCCNC(=N)N)C(=O)N[C@H](C(=O)N[C@@H](CCC(=O)O)C(=O)N[C@H](CC(=O)N[C@@H](CC(C)C)C(=O)N[C@@H](CCCNC(=N)N)C(=O)N[C@@H](CCCCN)C(=O)N[C@@H](CCCCN)CC(=O)N[C@@H](CC(C)C)C(=O)N[C@@H](CCC(N)=O)C(=O)N[C@@H](CC(=O)O)C(=O)N[C@H](CC(=O)N[C@@H](Cc1c[nH]cn1)C(=O)N[C@@H](CC(N)=O)C(=O)N[C@@H](Cc1ccccc1)C(N)=O)C(C)C)Cc1c[nH]c2ccccc12)C(C)C)CC(C)C [A5] | 54 ± 26 luminescence counts per second × 10−3 | 1.12 | 244 ± 32 luminescence counts per second × 10^−3 | EC50 (WT human PTHR-1): 1.66 nM
